Experimental data published in patent US20050182051A1, “Fungicidal mixtures based on benzamidoxime derivative and a strobilurin derivative” (priority 2002, published 2005).

System: Erysiphe [syn. Blumeria] graminis forma specialis. tritici
Assay: Activity against mildew of wheat (protective spray test on potted wheat seedlings)
Format: in vivo
Conditions: wheat seedlings cv. Kanzler, rated after 7 days
Protocol: The active compounds, separately or together, were formulated as a 10% emulsion in a mixture of 63% by weight of cyclohexanone and 27% by weight of emulsifier, and diluted with water to the desired concentration.
Evaluation was carried out by determining the infected leaf areas in percent. These percentages were converted into efficacies. The efficacy (w) was calculated as follows using Abbot's formula: [formula] • α corresponds to the fungal infection of the treated plants in % and • β corresponds to the fungal infection of the untreated (control) plants in %
An efficacy of 0 means that the infection level of the treated plants corresponds to that of the untreated control plants; an efficacy of 100 means that the treated plants were not infected.
The expected efficacies of the mixtures of the active compounds were determined using Colby's formula [R. S. Colby, Weeds 15, 20-22 (1967)] and compared with the observed efficacies. E =x+y−x·y/100 Colby's formula: • E expected efficacy, expressed in % of the untreated control, when using the mixture of the active compounds A and B at the concentrations a and b • x efficacy, expressed in % of the untreated control, when using active compound A at a concentration of a • y efficacy, expressed in % of the untreated control, when using active compound B at a concentration of b
Activity Against Mildew of Wheat Caused by Erysiphe [syn. Blumeria] graminis forma Specialis. tritici
Leaves of wheat seedlings of the cultivar “Kanzler” grown in pots were sprayed to runoff point with an aqueous preparation of active compound which had been prepared from a stock solution comprising 10% of active compound, 85% of cyclohexanone and 5% of emulsifier. 24 hours after the spray coating had dried on, the plants were dusted with spores of mildew of wheat (Erysiphe [syn. Blumeria] graminis forma specialis. tritici). The test plants were then placed in a greenhouse at 20-24° C. and 60-90% relative atmospheric humidity. After 7 days, the extent of the mildew development was determined visually in % infection of the entire leaf area.
The visually determined values for the percentage of infected leaf areas were converted into efficacies in % of the untreated control. An efficacy of 0 means the same degree of infection as in the untreated control, an efficacy of 100 means 0% infection. The expected efficacies for combinations of active compounds were determined using Colby's formula (Colby, S. R. (Calculating synergistic and antagonistic responses of herbicide Combinations”, Weeds, 15, p. 20-22, 1967) and compared to the observed effacacies.

[1] = 1 ppm in the spray liquor, inoculated 24 h after spraying

Measured: Efficacy in % of the untreated control

CO/C=C(/C(=O)OC)c1ccccc1Oc1cc(Oc2ccccc2C#N)ncn1 [azoxystrobin]
0%: 0.015 ppm in the spray liquor | 0.25 ppm in the spray liquor | [1]

CO/N=C(/C(=O)OC)c1ccccc1COc1ccccc1C [kresoxim-methyl]
0%: 0.06 ppm in the spray liquor | 0.25 ppm in the spray liquor | [1]

COC(=O)N(OC)c1ccccc1COc1ccn(-c2ccc(Cl)cc2)n1 [pyraclostrobin]
0%: 0.06 ppm in the spray liquor | 0.25 ppm in the spray liquor | [1]
